Where two headings read alike, the source gives them in different places.
Assays:
[1] = human blood, oxygen deficiency stress, 600 mg slowly intravenously, 10 minutes after administration; n=50
Method: 2.2) Self-experiment on man to improve and/or normalize the redox status of the blood:
After a defined oxygen deficiency stress, the same parameters were determined in human blood as in the trial described above. In all 50 trials were carried out on different days
After that, glutathione was slowly administered intravenously in an amount of 600 mg.
Boundary conditions: Temperature of 20° C., air pressure of 758-770 mm Hg.

[2] = cited from earlier work
[3] = rabbit ear venous blood, oxygen deficiency stress, 10 mg/kg, 5-10 minutes after administration; n=30
Method: 2.1) Animal Experiments with rabbits to improve and/or normalize the redox status of the blood:
In 5 different rabbits, the following parameters were measured by the method and with the instrument of VINCENT in 30 experiments in venous blood:
redox potential E H or electron potential: rH2
The values were measured in the venous blood of the ear after a defined oxygen deficiency stress.
The following values were determined 5-10 minutes after the glutathione one was administered:
Boundary conditions: Temperature of 20° C., air pressure of 767 mm Hg.

[4] = in vivo
[5] = cited from earlier work; remark: listed apart in the source
[6] = system: malignant melanoma from man; conditions: 300 mg three times per week
Description: 2.4) Experiment with 40 healthy gray mice after transplantation of a malignant melanoma from person.
Forty healthy gray mice were inoculated with 10^6 malignant melanoma cells each.
III.1 Experiment with 40 healthy gray mice after transplantation of a malignant melanoma from person.

human erythrocytes = conditions: incubation with 0.5 mg of reduced glutathione, 37° C., 30 minutes; 10 mL heparinised venous blood; n=20, average and standard deviation
Method: 1.1) In vitro experiment with human erythrocytes to improve and normalize the redox behavior:
Human venous blood (10 mL) was taken from each of 20 patients with different diseases and prevented from clotting by the addition of heparin.

[7] = molecular target: glucose-6-phosphate dehydrogenase (Homo sapiens, UniProt P11413); conditions: incubation with 0.5 mg reduced glutathione, 37° C., 30 minutes; n=22, average and standard deviation
Description: (§1) 1.2) In vitro experiment on cell systems of human erythrocytes Under the same conditions as those for the experiment described above, the enzymes, glucose-6-phosphate dehydrogenase and glutathione reductase, from the erythrocytes of 22 patients, were investigated in vitro. n=22 (average value and standard deviation are given)

glutathione reductase = glutathione reductase (Homo sapiens, UniProt P00390); conditions: incubation with 0.5 mg reduced glutathione, 37° C., 30 minutes; n=22, average and standard deviation
Description: as §1

Sequence of glucose-6-phosphate dehydrogenase (P11413 2-515 limits assumed): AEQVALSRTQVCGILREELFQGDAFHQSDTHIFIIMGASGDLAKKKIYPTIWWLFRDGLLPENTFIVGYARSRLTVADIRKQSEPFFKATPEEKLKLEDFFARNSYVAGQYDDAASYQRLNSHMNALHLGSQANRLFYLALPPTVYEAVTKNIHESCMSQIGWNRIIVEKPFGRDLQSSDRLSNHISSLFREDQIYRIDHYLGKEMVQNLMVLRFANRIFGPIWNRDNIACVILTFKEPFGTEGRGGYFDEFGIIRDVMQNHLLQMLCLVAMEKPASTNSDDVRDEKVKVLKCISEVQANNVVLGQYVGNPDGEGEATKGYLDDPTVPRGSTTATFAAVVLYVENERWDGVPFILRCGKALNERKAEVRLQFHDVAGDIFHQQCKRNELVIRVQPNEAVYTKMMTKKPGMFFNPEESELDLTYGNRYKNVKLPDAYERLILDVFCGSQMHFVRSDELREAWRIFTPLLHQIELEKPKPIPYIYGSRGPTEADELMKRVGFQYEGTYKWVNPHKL
Sequence of glutathione reductase (P00390 44-522): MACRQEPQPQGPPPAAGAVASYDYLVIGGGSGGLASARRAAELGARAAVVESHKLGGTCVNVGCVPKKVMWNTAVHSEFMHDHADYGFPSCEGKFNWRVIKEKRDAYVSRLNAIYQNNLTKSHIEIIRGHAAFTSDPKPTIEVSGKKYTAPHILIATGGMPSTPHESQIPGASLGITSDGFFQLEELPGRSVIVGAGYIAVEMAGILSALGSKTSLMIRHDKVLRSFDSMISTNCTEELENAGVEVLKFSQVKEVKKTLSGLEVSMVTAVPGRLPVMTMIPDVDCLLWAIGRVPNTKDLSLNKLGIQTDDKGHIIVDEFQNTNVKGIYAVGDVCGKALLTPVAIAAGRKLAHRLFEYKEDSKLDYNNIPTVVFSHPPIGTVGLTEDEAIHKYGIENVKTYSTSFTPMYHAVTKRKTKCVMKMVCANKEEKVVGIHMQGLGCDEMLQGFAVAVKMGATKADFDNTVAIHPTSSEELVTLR

For `N[C@@H](CCC(=O)N[C@@H](CS)C(=O)NCC(=O)O)C(=O)O` [reduced glutathione, gamma-glutamyl-cysteinyl-glycine], the “redox potential or electron potential rH2” value [1] is listed as 23.1 ± 1.4, the solubility in ethanol ([2]; ethanol) is listed as “soluble” and the “solubility in water and physiological salt solution” value ([2]; water and physiological salt solution) is listed as “readily soluble”. The “redox potential or electron potential rH2” value [3] was 21.8 ± 0.95, the “toxicity of the therapeutic dosage” value [4] was “nontoxic” and the “pK value for COOH(1)” value ([5]; COOH(1)) was 3.53. The “pK value for COOH(2)” value ([5]; COOH(2)) was 2.12, the “pK value for NH3+” value ([5]; NH3^+) was 8.66 and the “pK value for SH” value ([5]; SH) was 9.66. For the same molecule, the “further animals died within 20 days” value ([6]; 30 mice, 10^6 melanoma cells) was “five”, the “further animals died within 30 days” value ([6]; 30 mice, 10^6 melanoma cells) was “seven” and the “animals died within 15 days” value ([6]; 30 mice, 10^6 melanoma cells, untreated controls died within 8-12 days) was “three”. The “share of treated animals that survived the period of observation” value ([6]; 30 days after inoculation) was 50%, the “animals that survived the period of observation” value ([6]; of 30 treated mice, 30 days after inoculation) was “Fifteen” and the “content of intraerythrocytic reduced glutathione, value of incubation” value (human erythrocytes) was 1.99±0.15 mU. For the same molecule, the “glucose-6-phosphate dehydrogenase, value after incubation” value [7] was 179±16 mU/10^9 erys and the “glutathione reductase, value after incubation” value (glutathione reductase) was 11.3±1.2 U/10^11 erys.

Source: patent publication US6030950A, “Pharmaceutical therapeutic use of glutathione derivative” (priority 1987, dated 2000)
